For this assay, the target named is T1, BTK (Homo sapiens, UniProt Q06187).
T1 construct: purchased Nanosyn, Santa Clara, Calif; host or cells: 293HEK
T1 sequence (Q06187 whole entry): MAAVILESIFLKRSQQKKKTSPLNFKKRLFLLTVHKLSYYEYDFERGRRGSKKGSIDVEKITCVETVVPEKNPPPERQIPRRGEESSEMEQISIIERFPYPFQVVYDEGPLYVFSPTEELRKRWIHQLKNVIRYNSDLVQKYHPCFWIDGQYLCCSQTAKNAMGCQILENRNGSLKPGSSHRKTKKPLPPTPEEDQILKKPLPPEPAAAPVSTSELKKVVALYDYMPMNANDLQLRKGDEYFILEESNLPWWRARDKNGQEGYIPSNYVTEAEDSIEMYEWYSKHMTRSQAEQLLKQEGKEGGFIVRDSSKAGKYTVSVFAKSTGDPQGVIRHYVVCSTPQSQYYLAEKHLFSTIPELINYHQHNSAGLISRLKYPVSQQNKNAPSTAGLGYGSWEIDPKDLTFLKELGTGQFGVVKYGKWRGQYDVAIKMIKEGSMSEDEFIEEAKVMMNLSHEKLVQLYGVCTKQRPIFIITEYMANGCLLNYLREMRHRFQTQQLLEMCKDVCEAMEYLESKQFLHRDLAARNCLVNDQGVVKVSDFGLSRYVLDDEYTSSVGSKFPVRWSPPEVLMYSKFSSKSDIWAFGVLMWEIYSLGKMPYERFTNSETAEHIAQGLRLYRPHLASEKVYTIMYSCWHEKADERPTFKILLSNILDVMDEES
Kind of assay: BTK kinase electrophoretic mobility shift assay (MSA). The format is biochemical. As to conditions: 50 μM ATP, 0.5 nM BTK enzyme (Nanosyn-293HEK, WT), 3 hours at 25° C.; all examples except 50, 51, 62 and 63; read-out: BTK IC50. On the procedure: Kinase activity, unless otherwise indicated, was measured in vitro using an electrophoretic mobility shift assay (MSA). The phosphorylation of a peptide substrate by BTK and other kinases was measured. The kinase reactions were assembled in a total volume of 25 μL per well in 384 well plates. The following was added to each well: compound buffer (or control); enzyme buffer; and substrate buffer, as further described below.
The terminated reactions were analyzed using a 12 channel LABCHIP® 3000 microfluidic detection instrument (available from Caliper Life Sciences, Waltham, Mass.). […] Change in the relative fluorescence intensity of the substrate and product peaks was the parameter measured, reflecting enzyme activity. In the presence of an inhibitor, the ratio between product and substrate was altered. The signal of the product decreased, while the signal of the substrate increased. Capillary electrophoregrams (RDA acquisition files) were analyzed using HTS Well Analyzer software (available from Caliper Life Sciences, Waltham, Mass.).
Activity in each sample was determined as the product to sum ratio (PSR): P/(S+P), where P was the peak height of the product peptide and S was the peak height of the substrate peptide. For each compound, enzyme activity was measured at various concentrations (12 concentrations of compound spaced by 3× dilution intervals). Negative control samples (00 inhibition in the absence of inhibitor) and positive control samples (10000 inhibition, in the presence of 20 mM EDTA) were assembled in replicates of four and were used to calculate 00 inhibition values for each inhibitor at each concentration. Percent inhibition (Pinh) was determined using following equation: Pinh=(PSR0%−PSRinh)/(PSR0%−PSR100%)*100, where PSRinh was the product sum ratio in the presence of inhibitor, PSR0% was the average product sum ratio in the absence of inhibitor and PSR100% was the average product sum ratio in 100%−inhibition control samples.
The IC50 values of inhibitors were determined by 4 parameter sigmoidal dose response model fitting of the inhibition curves (Pinh versus inhibitor concentration) using XLfit® 4 software (available from IDBS, Boston, Mass.).
On to `C=CC(=O)N1CCC(C2CCNc3c2nn(-c2ccc(Oc4ccccc4)cc2)c3C(N)=O)C1` (mixture of isomers) [Example 10, 2-(4-phenoxyphenyl)-7-[1-(prop-2-enoyl)pyrrolidin-3-yl]-4,5,6,7-tetrahydro-2H-pyrazolo[4,3-b]pyridine-3-carboxamide], for which the IC50 (as a rule, the concentration needed to halve the response being measured) came to 3.78 nM. On to `C=CC(=O)N1CCC[C@H]([C@@H]2CCNc3c2nn(-c2ccc(Oc4ccccc4)cc2)c3C(N)=O)C1` (racemic) [Example 8, (7SR)-2-(4-phenoxyphenyl)-7-[(3RS)-1-(prop-2-enoyl)piperidin-3-yl]-4,5,6,7-tetrahydro-2H-pyrazolo[4,3-b]pyridine-3-carboxamide], for which the IC50 stood at 4.7 nM. For the molecule `C=CC(=O)N1CCC[C@@H]([C@@H]2CCNc3c2nn(-c2ccc(Oc4ccccc4)cc2)c3C(N)=O)C1` (racemic) [Example 9, (7RS)-2-(4-phenoxyphenyl)-7-[(3RS)-1-(prop-2-enoyl)piperidin-3-yl]-4,5,6,7-tetrahydro-2H-pyrazolo[4,3-b]pyridine-3-carboxamide], the IC50 came to 13.8 nM. Take `C=CC(=O)N1CCN([C@H]2CCNc3c2nn(-c2ccc(Oc4ccccc4)cc2)c3C(N)=O)[C@@H](C)C1` (single isomer, unassigned) [Example 31]: the IC50 came to 88.3 nM. Consider `C=CC(=O)N1CCN([C@@H]2CCNc3c2nn(-c2ccc(Oc4ccccc4)cc2)c3C(N)=O)[C@@H](C)C1` (single isomer, unassigned) [Example 32], for which the concentration for half-maximal inhibition (IC50) is 18.1 nM. On to `CC#CC(=O)N1CCN([C@H]2CCNc3c2nn(-c2ccc(Oc4ccccc4)cc2)c3C(N)=O)CC1` (single isomer, unassigned) [Example 39], for which the IC50 stood at 5.8 nM. On to `CC#CC(=O)N1CCN([C@@H]2CCNc3c2nn(-c2ccc(Oc4ccccc4)cc2)c3C(N)=O)CC1` (single isomer, unassigned) [Example 40], for which the IC50 was found to be 48.6 nM. The figure for `CC#CC(=O)N1CCC(C2CCNc3c2nn(-c2ccc(Oc4ccccc4)cc2)c3C(N)=O)CC1` (centres unmarked) [Example 2, 7-[1-(but-2-ynoyl)piperidin-4-yl]-2-(4-phenoxyphenyl)-4,5,6,7-tetrahydro-2H-pyrazolo[4,3-b]pyridine-3-carboxamide] is 4.07 nM; for `C=CC(=O)N1CCC([C@@H]2CCNc3c2nn(-c2ccc(Oc4ccccc4)cc2)c3C(N)=O)CC1` [Example 5, (7S)-2-(4-phenoxyphenyl)-7-[1-(prop-2-enoyl)piperidin-4-yl]-4,5,6,7-tetrahydro-2H-pyrazolo[4,3-b]pyridine-3-carboxamide] it is 10.5 nM.

Regarding `C=CC(=O)N1CCN([C@H]2CCNc3c2nn(-c2ccc(Oc4ccccc4)cc2)c3C(N)=O)CC1` [Example 7, (7S)-2-(4-phenoxyphenyl)-7-[4-(prop-2-enoyl)piperazin-1-yl]-4,5,6,7-tetrahydro-2H-pyrazolo[4,3-b]pyridine-3-carboxamide], the IC50 turned out to be 11.5 nM.

Turning to `C=CC(=O)N1CCC(C2CCNc3c2nn(-c2ccc(Oc4ccc(F)cc4)cc2)c3C(N)=O)CC1` (centres unmarked) [Example 11, 2-[4-(4-fluorophenoxy)phenyl]-7-[1-(prop-2-enoyl)piperidin-4-yl]-4,5,6,7-tetrahydro-2H-pyrazolo[4,3-b]pyridine-3-carboxamide], the IC50 came to 2.25 nM. Regarding `C=CC(=O)N1CCC(C2CCNc3c2nn(-c2ccc(Oc4ccc(F)cc4F)cc2)c3C(N)=O)CC1` (centres unmarked) [Example 13, 2-[4-(2,4-difluorophenoxy)phenyl]-7-[1-(prop-2-enoyl)piperidin-4-yl]-4,5,6,7-tetrahydro-2H-pyrazolo[4,3-b]pyridine-3-carboxamide], the IC50 was determined as 1.84 nM. `C=CC(=O)N1CCC(C2CCNc3c2nn(-c2ccc(Oc4ccccc4)cc2OC)c3C(N)=O)CC1` (centres unmarked) [Example 14, 2-(2-methoxy-4-phenoxyphenyl)-7-[1-(prop-2-enoyl)piperidin-4-yl]-4,5,6,7-tetrahydro-2H-pyrazolo[4,3-b]pyridine-3-carboxamide]: the IC50 was 37.5 nM. With `C=CC(=O)N1CCC(C2CCNc3c2nn(-c2ccc(Oc4ccc(OC)cc4)cc2)c3C(N)=O)CC1` (centres unmarked) [Example 17, 2-[4-(4-methoxyphenoxy)phenyl]-7-[1-(prop-2-enoyl)piperidin-4-yl]-4,5,6,7-tetrahydro-2H-pyrazolo[4,3-b]pyridine-3-carboxamide] the figure was 2.72 nM; with `C=CC(=O)N1C[C@H](C)N(C2CCNc3c2nn(-c2ccc(Oc4ccccc4)cc2)c3C(N)=O)C[C@H]1C` (stereo partly drawn) [Example 18, 7-[(2S,5R)-2,5-dimethyl-4-(prop-2-enoyl)piperazin-1-yl]-2-(4-phenoxyphenyl)-4,5,6,7-tetrahydro-2H-pyrazolo[4,3-b]pyridine-3-carboxamide], 678 nM; with `CC#CC(=O)N1CCC(N2CCNc3c2nn(-c2ccc(Oc4ccccc4)cc2)c3C(N)=O)CC1` [Example 19, 7-[1-(but-2-ynoyl)piperidin-4-yl]-2-(4-phenoxyphenyl)-4,5,6,7-tetrahydro-2H-pyrazolo[3,4-b]pyrazine-3-carboxamide], 8.61 nM. The figure for `C=CC(=O)N1CCN(C2CCNc3c2nn(-c2ccc(Oc4ccccc4)cc2)c3C(N)=O)C[C@H]1C(C)C` (stereo partly drawn) [Example 20, 2-(4-phenoxyphenyl)-7-[(3R)-3-(propan-2-yl)-4-(prop-2-enoyl)piperazin-1-yl]-4,5,6,7-tetrahydro-2H-pyrazolo[4,3-b]pyridine-3-carboxamide] is 3.17 nM; for `C=CC(=O)N1C[C@@H](C)N(C2CCNc3c2nn(-c2ccc(Oc4ccccc4)cc2)c3C(N)=O)C[C@@H]1C` (stereo partly drawn) [Example 21, 7-[(2R,5S)-2,5-dimethyl-4-(prop-2-enoyl)piperazin-1-yl]-2-(4-phenoxyphenyl)-4,5,6,7-tetrahydro-2H-pyrazolo[4,3-b]pyridine-3-carboxamide] it is 919 nM.

With `C=CC(=O)N1CCC(C2CCNc3c2nn(-c2ccc(Oc4cccc(C(F)(F)F)c4)cc2)c3C(N)=O)CC1` (centres unmarked) [Example 23, 7-[1-(prop-2-enoyl)piperidin-4-yl]-2-{4-[3-(trifluoromethyl)phenoxy]phenyl}-4,5,6,7-tetrahydro-2H-pyrazolo[4,3-b]pyridine-3-carboxamide], the IC50 amounted to 2.03 nM.

For the molecule `C=CC(=O)N1CCCN(C2CCNc3c2nn(-c2ccc(Oc4ccccc4)cc2)c3C(N)=O)CC1` (centres unmarked) [Example 25, trifluoroacetic acid-2-(4-phenoxyphenyl)-7-[4-(prop-2-enoyl)-1,4-diazepan-1-yl]-4,5,6,7-tetrahydro-2H-pyrazolo[4,3-b]pyridine-3-carboxamide (1/1)], the IC50 was determined as 29.4 nM. The figure for `C=CC(=O)N1CCN(C2CCNc3c2nn(-c2ccc(Oc4ccccc4)cc2)c3C(N)=O)CC12CCC2` (centres unmarked) [Example 26, 2-(4-phenoxyphenyl)-7-[5-(prop-2-enoyl)-5,8-diazaspiro[3.5]nonan-8-yl]-4,5,6,7-tetrahydro-2H-pyrazolo[4,3-b]pyridine-3-carboxamide] is 2.16 nM; for `CC#CC(=O)N1CCN(C2CCNc3c2nn(-c2ccc(Oc4ccccc4)cc2)c3C(N)=O)CC1` (centres unmarked) [Example 27, 7-[4-(but-2-ynoyl)piperazin-1-yl]-2-(4-phenoxyphenyl)-4,5,6,7-tetrahydro-2H-pyrazolo[4,3-b]pyridine-3-carboxamide] it is 126 nM.

For `C=CC(=O)N1CCC(C2CCNc3c2nn(-c2ccc(Oc4ccc(Cl)cc4)cc2)c3C(N)=O)CC1` (centres unmarked) [Example 28, 2-[4-(4-chlorophenoxy)phenyl]-7-[1-(prop-2-enoyl)piperidin-4-yl]-4,5,6,7-tetrahydro-2H-pyrazolo[4,3-b]pyridine-3-carboxamide], the IC50 was 4.66 nM. With `C=CC(=O)N1CCC([C@@H]2CCNc3c2nn(-c2ccc(Oc4ccc(F)cc4F)cc2)c3C(N)=O)CC1` [Example 29, (7S)-2-[4-(2,4-difluorophenoxy)phenyl]-7-[1-(prop-2-enoyl)piperidin-4-yl]-4,5,6,7-tetrahydro-2H-pyrazolo[4,3-b]pyridine-3-carboxamide] the figure was 24.2 nM; with `C=CC(=O)N1C[C@H]2C[C@@H]1CN2C1CCNc2c1nn(-c1ccc(Oc3ccccc3)cc1)c2C(N)=O` (stereo partly drawn) [Example 33, 2-(4-phenoxyphenyl)-7-[(1R,4R)-5-(prop-2-enoyl)-2,5-diazabicyclo[2.2.1]heptan-2-yl]-4,5,6,7-tetrahydro-2H-pyrazolo[4,3-b]pyridine-3-carboxamide], 24.8 nM; with `C=CC(=O)N1C[C@@H]2C[C@H]1CN2C1CCNc2c1nn(-c1ccc(Oc3ccccc3)cc1)c2C(N)=O` (stereo partly drawn) [Example 34, 2-(4-phenoxyphenyl)-7-[(1S,4S)-5-(prop-2-enoyl)-2,5-diazabicyclo[2.2.1]heptan-2-yl]-4,5,6,7-tetrahydro-2H-pyrazolo[4,3-b]pyridine-3-carboxamide], 12.5 nM.

Values taken from patent US20220213092A1, “BICYCLIC PYRAZOLE BRUTON'S TYROSINE KINASE INHIBITORS” (AbbVie Inc., priority 2020, published 2022).
